Columns and labels:
Assay type in all cases: biochemical
HDAC1 = HDAC1 (Homo sapiens, UniProt Q13547); assay: HDAC enzyme activity assay (fluorogenic substrate), HDAC1; conditions: recombinant enzyme; read-out: HDAC1 inhibition (IC50)
HDAC2 = target: T1, HDAC2 (Homo sapiens, UniProt Q92769); assay: HDAC enzyme activity assay (fluorogenic substrate), HDAC2; conditions: recombinant enzyme; read-out: HDAC2 inhibition (IC50)
T1 construct: NM_001527; Cat. #50002) is full-length with C-terminal his tag; His (C); purchased BPS Biosciences 50002; host or cells: baculovirus infected Sf9 cells
T1 sequence (Q92769 whole entry): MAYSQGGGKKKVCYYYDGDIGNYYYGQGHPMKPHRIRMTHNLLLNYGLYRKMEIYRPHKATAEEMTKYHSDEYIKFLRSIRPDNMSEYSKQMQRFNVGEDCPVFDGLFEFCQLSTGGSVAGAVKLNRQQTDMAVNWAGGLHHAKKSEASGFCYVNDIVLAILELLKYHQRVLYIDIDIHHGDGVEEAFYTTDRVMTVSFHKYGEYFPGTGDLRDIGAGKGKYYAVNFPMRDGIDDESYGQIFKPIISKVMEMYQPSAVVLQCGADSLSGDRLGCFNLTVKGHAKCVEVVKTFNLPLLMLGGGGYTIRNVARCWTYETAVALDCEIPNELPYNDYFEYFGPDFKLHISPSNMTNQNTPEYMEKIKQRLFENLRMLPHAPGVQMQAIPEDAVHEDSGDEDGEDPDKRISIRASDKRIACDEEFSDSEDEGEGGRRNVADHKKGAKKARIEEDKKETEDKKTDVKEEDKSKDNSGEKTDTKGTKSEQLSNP

PDE5A = target: T2, PDE5A (Homo sapiens, UniProt O76074); assay: PDE enzyme activity assay (HTRF cGMP), PDE5A; conditions: recombinant enzyme; read-out: PDE5A1 inhibition (IC50)
T2 construct: they are full-length with N-terminal GST tag; GST (N); purchased BPS Biosciences 60050; host or cells: baculovirus infected Sf9 cells

HDAC6 = target: T3, HDAC6 (Homo sapiens, UniProt Q9UBN7); assay: HDAC enzyme activity assay (fluorogenic substrate), HDAC6; conditions: recombinant enzyme; read-out: HDAC6 inhibition (IC50)
T3 construct: BC069243; Cat. #50006) is full-length with N-terminal GST tag; GST (N); purchased BPS Biosciences 50006; host or cells: baculovirus infected Sf9 cells
T3 sequence (Q9UBN7 1-1215): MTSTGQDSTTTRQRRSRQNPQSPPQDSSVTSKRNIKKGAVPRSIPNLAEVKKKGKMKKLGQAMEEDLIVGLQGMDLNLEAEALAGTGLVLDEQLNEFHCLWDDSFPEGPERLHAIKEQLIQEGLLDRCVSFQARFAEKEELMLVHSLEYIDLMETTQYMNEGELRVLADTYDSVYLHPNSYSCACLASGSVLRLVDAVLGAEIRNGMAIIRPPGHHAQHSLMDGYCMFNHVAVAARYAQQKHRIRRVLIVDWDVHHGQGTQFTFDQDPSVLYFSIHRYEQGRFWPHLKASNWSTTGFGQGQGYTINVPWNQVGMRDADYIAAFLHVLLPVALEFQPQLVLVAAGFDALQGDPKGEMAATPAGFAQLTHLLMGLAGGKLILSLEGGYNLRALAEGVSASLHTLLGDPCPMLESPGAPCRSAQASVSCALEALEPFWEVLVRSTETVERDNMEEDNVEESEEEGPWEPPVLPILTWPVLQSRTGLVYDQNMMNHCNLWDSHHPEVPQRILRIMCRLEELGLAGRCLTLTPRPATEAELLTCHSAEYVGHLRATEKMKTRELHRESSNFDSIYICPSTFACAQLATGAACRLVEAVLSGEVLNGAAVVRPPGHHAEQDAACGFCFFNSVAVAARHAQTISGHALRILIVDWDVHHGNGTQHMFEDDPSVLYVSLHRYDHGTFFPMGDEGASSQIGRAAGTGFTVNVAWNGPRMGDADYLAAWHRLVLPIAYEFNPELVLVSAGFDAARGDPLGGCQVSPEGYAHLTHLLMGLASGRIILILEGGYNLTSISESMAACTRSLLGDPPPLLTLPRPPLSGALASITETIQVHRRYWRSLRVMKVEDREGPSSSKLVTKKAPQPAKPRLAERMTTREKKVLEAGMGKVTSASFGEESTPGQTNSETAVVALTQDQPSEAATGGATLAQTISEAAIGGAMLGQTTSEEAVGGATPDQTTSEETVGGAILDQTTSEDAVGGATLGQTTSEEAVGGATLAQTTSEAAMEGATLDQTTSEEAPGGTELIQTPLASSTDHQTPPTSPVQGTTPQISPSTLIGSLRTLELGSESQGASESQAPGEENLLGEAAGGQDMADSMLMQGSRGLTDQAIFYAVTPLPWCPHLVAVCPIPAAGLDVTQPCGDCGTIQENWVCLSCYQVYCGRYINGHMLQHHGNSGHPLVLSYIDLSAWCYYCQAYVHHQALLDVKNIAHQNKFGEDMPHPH

Sequence of HDAC1 (Q13547 whole entry): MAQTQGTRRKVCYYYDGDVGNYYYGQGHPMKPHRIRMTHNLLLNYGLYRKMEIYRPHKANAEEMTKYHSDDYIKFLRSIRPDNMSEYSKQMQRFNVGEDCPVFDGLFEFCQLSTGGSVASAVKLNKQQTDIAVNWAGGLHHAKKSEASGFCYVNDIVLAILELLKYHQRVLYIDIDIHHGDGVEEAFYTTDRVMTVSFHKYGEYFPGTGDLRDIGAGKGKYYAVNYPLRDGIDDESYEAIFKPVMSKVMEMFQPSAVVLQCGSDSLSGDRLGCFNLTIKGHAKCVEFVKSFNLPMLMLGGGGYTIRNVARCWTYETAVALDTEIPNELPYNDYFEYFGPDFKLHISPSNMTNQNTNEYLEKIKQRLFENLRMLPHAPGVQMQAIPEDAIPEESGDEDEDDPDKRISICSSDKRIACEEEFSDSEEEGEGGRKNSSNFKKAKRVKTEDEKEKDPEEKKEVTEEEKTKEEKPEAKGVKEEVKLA

IC50 (HDAC1) [µM] | IC50 (HDAC2) [µM] | IC50 (PDE5A) [µM] | IC50 (HDAC6) [µM] | Compound
> 10 | > 10 | 0.01 to 1 | 1 to 10 | CCCc1nn(C)c2c(=O)[nH]c(-c3cc(N4CCC5(CCC(C(=O)NO)C5)CC4)ccc3OCC)nc12 (stereo not shown) [Example 1-56, 8-[4-ethoxy-3-(1-methyl-7-oxo-3-propyl-6H-pyrazolo[4,3-d]pyrimidin-5-yl)phenyl]-8-azaspiro[4.5]decane-3-carbohydroxamic acid]
1 to 10 | > 10 | 0.01 to 1 | 0.01 to 1 | CCCc1nn(C)c2c(=O)[nH]c(-c3cc(C4=CCC(CC(=O)NO)CC4)ccc3OCC)nc12 (stereo not shown) [Example 1-42]
1 to 10 | > 10 | 0.01 to 1 | 0.01 to 1 | CCCc1nn(C)c2c(=O)[nH]c(-c3cc(CC4CCC(CC(=O)NO)CC4)ccc3OCC)nc12 (racemic) [Example 1-43]
1 to 10 | > 10 | 0.01 to 1 | > 10 | CCCc1nn(C)c2c(=O)[nH]c(-c3cc(NCCC(=O)NO)ccc3OCC)nc12 [Example 1-33, 3-[4-ethoxy-3-(1-methyl-7-oxo-3-propyl-6H-pyrazolo[4,3-d]pyrimidin-5-yl)anilino]propanehydroxamic acid]
1 to 10 | 1 to 10 | 0.01 to 1 | 1 to 10 | CCCc1nn(C)c2c(=O)[nH]c(-c3cc(OC4CCC(C(=O)NO)CC4)ccc3OCC)nc12 (stereo not shown) [Example 1-53]
1 to 10 | 1 to 10 | < 0.01 | 0.01 to 1 | CCCc1nc(C)c2c(=O)[nH]c(-c3cc(Cc4ccc(/C=C/C(=O)NO)cc4)ccc3OCC)nn12 [Example 2-08]
0.01 to 1 | 1 to 10 | 0.01 to 1 | 0.01 to 1 | CCCc1nn(C)c2c(=O)[nH]c(-c3cc(CC4CC(C(=O)NO)C4)ccc3OCC)nc12 (stereo not shown) [Example 1-63, 3-[[4-ethoxy-3-(1-methyl-7-oxo-3-propyl-6H-pyrazolo[4,3-d]pyrimidin-5 yl)phenyl]methyl]cyclobutanecarbohydroxamic acid]
1 to 10 | > 10 | 0.01 to 1 | > 10 | CCCc1nn(C)c2c(=O)[nH]c(-c3cc(N4CCCC5(CCC(C(=O)NO)CC5)C4)ccc3OCC)nc12 (stereo not shown) [Example 1-65]
0.01 to 1 | 1 to 10 | 0.01 to 1 | 0.01 to 1 | CCCc1nn(C)c2c(=O)[nH]c(-c3cc(C4CC(C(=O)NO)C4)ccc3OCC)nc12 (stereo not shown) [Example 1-84, 3-[4-ethoxy-3-(1-methyl-7-oxo-3-propyl-6H-pyrazolo[4,3-d]pyrimidin-5-yl)phenyl]cyclobutanecarbohydroxamic acid]
> 10 | > 10 | 0.01 to 1 | > 10 | CCCc1nn(C)c2c(=O)[nH]c(-c3cc(Cc4ccc(C(=O)NO)cc4OC)ccc3OCC)nc12 [Example 1-60]
0.01 to 1 | > 10 | 0.01 to 1 | 0.01 to 1 | CCCc1nn(C)c2c(=O)[nH]c(-c3cc(CC4CCC(C(=O)NO)CC4)ccc3OCC)nc12 (stereo not shown) [Example 1-28, 4-[[4-ethoxy-3-(1-methyl-7-oxo-3-propyl-6H-pyrazolo[4,3-d]pyrimidin-5-yl)phenyl]methyl]cyclohexanecarbohydroxamic acid]
0.01 to 1 | 1 to 10 | 0.01 to 1 | 1 to 10 | CCCc1nn(C)c2c(=O)[nH]c(-c3cc(N4CCC5(CCCN(c6ncc(C(=O)NO)cn6)C5)C4)ccc3OCC)nc12 (stereo not shown) [Example 1-70]
1 to 10 | > 10 | < 0.01 | > 10 | CCCc1nn(C)c2c(=O)[nH]c(-c3cc(C(=O)NO)ccc3OCC)nc12 [Example 1-27, 4-ethoxy-3-(1-methyl-7-oxo-3-propyl-6H-pyrazolo[4,3-d]pyrimidin-5-yl)benzenecarbohydroxamic acid]
